Reference: patent publication US20260070945A1, “MACROCYCLIC IMMUNOMODULATORS” (Bristol-Myers Squibb Company, priority 2022, published 2026)
Where a SMILES comes first, the peptide text is derived from it. Bridges are numbered along the chain shown (N, C = ends). [ ]: non-standard residue; d: D form. The star is where a group is joined. ξ: configuration not given here. Phe(4-COOH) = N[C@@H](Cc1ccc(C(=O)O)cc1)C(=O)O; Bip = N[C@@H](Cc1ccc(-c2ccccc2)cc1)C(=O)O; Phe(3-Me) = Cc1cccc(C[C@H](N)C(=O)O)c1; Cha = N[C@@H](CC1CCCCC1)C(=O)O; Cit = NC(=O)NCCC[C@H](N)C(=O)O; Thr(3ξ) = CC(O)[C@H](N)C(=O)O; hSer = N[C@@H](CCO)C(=O)O; Carboxymethyl = O=C(O)C*; NMeA = CN[C@@H](C)C(=O)O; Aun = NCCCCCCCCCCC(=O)O; Dab = NCC[C@H](N)C(=O)O; AEEA = NCCOCCOCC(=O)O

The compounds below were run against T1, PD-1/PD-L1 interaction (PE-labeled human PD-L1-Ig binding to Jurkat cell line over-expressing human PD-1) (Homo sapiens, UniProt Q15116) (assay: Jurkat-PD-1 Cell Binding High-Content Screening Assay (CBA)). Conditions: Jurkat-hPD-1 cells, PE-labeled PD-L1-Ig 20 nM final; read-out: Jurkat HPD1 PDL1 IC50.
T1 construct: expressed in transfected cells; host or cells: Jurkat
T1 sequence (Q15116 25-288): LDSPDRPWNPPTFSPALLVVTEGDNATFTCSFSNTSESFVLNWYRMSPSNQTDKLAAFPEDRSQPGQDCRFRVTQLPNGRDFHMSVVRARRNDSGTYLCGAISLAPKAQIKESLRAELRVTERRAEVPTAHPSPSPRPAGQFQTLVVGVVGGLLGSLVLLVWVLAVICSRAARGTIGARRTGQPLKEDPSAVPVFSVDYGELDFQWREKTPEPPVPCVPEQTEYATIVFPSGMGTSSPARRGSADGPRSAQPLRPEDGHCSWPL
Summary of the method: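 Jurkat cells overexpressing human PD-1 (8×10^3/well, DMEM + 10% FCS) preincubated with compound 2 h at 37 °C, then PE-labelled human PD-L1-Ig (20 nM final) for 1 h. Cells fixed in paraformaldehyde with Hoechst 33342; bound PD-L1 quantified by high-content imaging.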
Compound Cc1cccc(C[C@@H]2NC(=O)[C@H](CC(=O)O)NC(=O)[C@H](Cc3ccc(OCC(=O)O)cc3)NC(=O)[C@H](CCCNC(=N)N)NC(=O)CSC[C@@H](C(=O)N[C@H](CC(N)=O)C(=O)NCCCCCCCCCCC(=O)O)NC(=O)[C@H](C(C)O)NC(=O)[C@H](C(C)C)NC(=O)[C@H](CC3CCCCC3)NC(=O)[C@H](CCN)NC(=O)[C@@H](CC(C)C)NC(=O)[C@H](C)N(C)C(=O)[C@H](CCCNC(N)=O)NC(=O)[C@H](Cc3ccc(-c4ccccc4)cc3)NC(=O)[C@H](C(C)C)NC2=O)c1 (stereo partly drawn) [Example 2312] ({CH2CO}-RY(Carboxymethyl)D[Phe(3-Me)]V[Bip][Cit][NMeA][dL][Dab][Cha]V[Thr(3ξ)]C[dN][Aun]-OH; thioether N-14) has an IC50 of 8.7 nM. With Cc1cccc(C[C@@H]2NC(=O)[C@H](CC(=O)O)NC(=O)[C@H](Cc3ccc(OCC(=O)O)cc3)NC(=O)[C@H](C(C)O)NC(=O)CSC[C@@H](C(=O)N[C@H](CC(N)=O)C(=O)NCCCCCCCCCCC(=O)O)NC(=O)[C@H](C(C)O)NC(=O)[C@H](C(C)C)NC(=O)[C@H](CC3CCCCC3)NC(=O)[C@H](CCN)NC(=O)[C@@H](CC(C)C)NC(=O)[C@H](C)N(C)C(=O)[C@H](CCCNC(N)=O)NC(=O)[C@H](Cc3ccc(-c4ccccc4)cc3)NC(=O)[C@H](C(C)C)NC2=O)c1 (stereo partly drawn) [Example 2313] ({CH2CO}-[Thr(3ξ)]Y(Carboxymethyl)D[Phe(3-Me)]V[Bip][Cit][NMeA][dL][Dab][Cha]V[Thr(3ξ)]C[dN][Aun]-OH; thioether N-14) the IC50 was 10.1 nM. Work on Cc1cccc(C[C@@H]2NC(=O)[C@H](CC(=O)O)NC(=O)[C@H](Cc3ccc(OCC(=O)O)cc3)NC(=O)[C@H](C(C)O)NC(=O)CSC[C@@H](C(=O)N[C@H](CC(N)=O)C(=O)NCCCCCCCCCCC(=O)O)NC(=O)[C@H](C(C)O)NC(=O)[C@H](C(C)C)NC(=O)[C@H](CC3CCCCC3)NC(=O)[C@H](CCN)NC(=O)[C@@H](CC(C)C)NC(=O)[C@H](C)N(C)C(=O)[C@H](Cc3ccc(O)cc3)NC(=O)[C@H](Cc3ccc(-c4ccccc4)cc3)NC(=O)[C@H](Cc3ccc(O)cc3)NC2=O)c1 (stereo partly drawn) [Example 2314] ({CH2CO}-[Thr(3ξ)]Y(Carboxymethyl)D[Phe(3-Me)]Y[Bip]Y[NMeA][dL][Dab][Cha]V[Thr(3ξ)]C[dN][Aun]-OH; thioether N-14) yielded an IC50 of 21.7 nM. In the case of Cc1cccc(C[C@@H]2NC(=O)[C@H](CC(=O)O)NC(=O)[C@H](Cc3ccc(OCC(=O)O)cc3)NC(=O)[C@H](C(C)O)NC(=O)CSC[C@@H](C(=O)N[C@H](CC(N)=O)C(=O)NCCCCCCCCCCC(=O)O)NC(=O)[C@H](C(C)O)NC(=O)[C@H](C(C)C)NC(=O)[C@H](CC3CCCCC3)NC(=O)[C@H](CCN)NC(=O)[C@@H](CC(C)C)NC(=O)[C@H](C)N(C)C(=O)[C@H](CCCNC(N)=O)NC(=O)[C@H](Cc3ccc(-c4ccccc4)cc3)NC(=O)[C@H](Cc3ccccc3)NC2=O)c1 (stereo partly drawn) [Example 2315] ({CH2CO}-[Thr(3ξ)]Y(Carboxymethyl)D[Phe(3-Me)]F[Bip][Cit][NMeA][dL][Dab][Cha]V[Thr(3ξ)]C[dN][Aun]-OH; thioether N-14), the IC50 is reported as 9.7 nM. Compound CC(=O)NCCCC[C@@H]1NC(=O)[C@H](Cc2ccc(-c3ccccc3)cc2)NC(=O)[C@H](C(C)C)NC(=O)[C@H](Cc2c[nH]c3ccccc23)NC(=O)[C@H](CC(=O)O)NC(=O)[C@H](Cc2ccc(OCC(=O)O)cc2)NC(=O)[C@H](Cc2ccc(OCC(=O)O)cc2)NC(=O)CSC[C@@H](C(=O)NCCOCCOCC(=O)NCCCCCCCCCCC(=O)O)NC(=O)[C@H](CCO)NC(=O)[C@H](C(C)C)NC(=O)[C@H](CC2CCCCC2)NC(=O)[C@H](CCN)NC(=O)[C@@H](CC(C)C)NC(=O)[C@H](C)N(C)C1=O [Example 2316] ({CH2CO}-Y(Carboxymethyl)Y(Carboxymethyl)DWV[Bip]K(Ac)[NMeA][dL][Dab][Cha]V[hSer]C[AEEA][Aun]-OH; thioether N-14) has an IC50 of 11.3 nM. In the case of Cc1cccc(C[C@@H]2NC(=O)[C@H](CC(=O)O)NC(=O)[C@H](Cc3ccc(C(=O)O)cc3)NC(=O)[C@H](Cc3ccc(OCC(=O)O)cc3)NC(=O)CSC[C@@H](C(=O)NCCOCCOCC(=O)NCCCCCCCCCCC(=O)O)NC(=O)[C@H](CCO)NC(=O)[C@H](C(C)C)NC(=O)[C@H](CC3CCCCC3)NC(=O)[C@H](CCN)NC(=O)[C@@H](CC(C)C)NC(=O)[C@H](C)N(C)C(=O)[C@H](CCCNC(N)=O)NC(=O)[C@H](Cc3ccc(-c4ccccc4)cc3)NC(=O)[C@H](C(C)C)NC2=O)c1 [Example 2317] ({CH2CO}-Y(Carboxymethyl)[Phe(4-COOH)]D[Phe(3-Me)]V[Bip][Cit][NMeA][dL][Dab][Cha]V[hSer]C[AEEA][Aun]-OH; thioether N-14), the IC50 is reported as 8.9 nM. Cc1cccc(C[C@@H]2NC(=O)[C@H](CC(=O)O)NC(=O)[C@H](Cc3ccc(OCC(=O)O)cc3)NC(=O)[C@H](CCCNC(=N)N)NC(=O)CSC[C@@H](C(=O)NCCOCCOCC(=O)NCCCCCCCCCCC(=O)O)NC(=O)[C@H](C(C)O)NC(=O)[C@H](C(C)C)NC(=O)[C@H](CC3CCCCC3)NC(=O)[C@H](CCN)NC(=O)[C@@H](CC(C)C)NC(=O)[C@H](C)N(C)C(=O)[C@H](CCCNC(N)=O)NC(=O)[C@H](Cc3ccc(-c4ccccc4)cc3)NC(=O)[C@H](C(C)C)NC2=O)c1 (stereo partly drawn) [Example 2318] ({CH2CO}-RY(Carboxymethyl)D[Phe(3-Me)]V[Bip][Cit][NMeA][dL][Dab][Cha]V[Thr(3ξ)]C[AEEA][Aun]-OH; thioether N-14) was tested, and the IC50 was 7.8 nM. CC(C)C[C@H]1NC(=O)[C@H](C)N(C)C(=O)[C@H](CCCNC(N)=O)NC(=O)[C@H](Cc2ccc(-c3ccccc3)cc2)NC(=O)[C@H](C(C)C)NC(=O)[C@H](Cc2c[nH]c3ccccc23)NC(=O)[C@H](CC(=O)O)NC(=O)[C@H](Cc2ccc(OCC(=O)O)cc2)NC(=O)[C@H](Cc2ccc(OCC(=O)O)cc2)NC(=O)CSC[C@@H](C(=O)NCCOCCOCC(=O)NCCCCCCCCCCC(=O)O)NC(=O)[C@H](CCO)NC(=O)[C@H](C(C)C)NC(=O)[C@H](CC2CCCCC2)NC(=O)[C@H](CCN)NC1=O [Example 2319] ({CH2CO}-Y(Carboxymethyl)Y(Carboxymethyl)DWV[Bip][Cit][NMeA][dL][Dab][Cha]V[hSer]C[AEEA][Aun]-OH; thioether N-14) showed an IC50 of 15.6 nM. Cc1cccc(C[C@@H]2NC(=O)[C@H](CC(=O)O)NC(=O)[C@H](Cc3ccc(OCC(=O)O)cc3)NC(=O)[C@H](C(C)O)NC(=O)CSC[C@@H](C(=O)NCCOCCOCC(=O)NCCCCCCCCCCC(=O)O)NC(=O)[C@H](C(C)O)NC(=O)[C@H](C(C)C)NC(=O)[C@H](CC3CCCCC3)NC(=O)[C@H](CCN)NC(=O)[C@@H](CC(C)C)NC(=O)[C@H](C)N(C)C(=O)[C@H](CCCNC(N)=O)NC(=O)[C@H](Cc3ccc(-c4ccccc4)cc3)NC(=O)[C@H](C(C)C)NC2=O)c1 (stereo partly drawn) [Example 2320] ({CH2CO}-[Thr(3ξ)]Y(Carboxymethyl)D[Phe(3-Me)]V[Bip][Cit][NMeA][dL][Dab][Cha]V[Thr(3ξ)]C[AEEA][Aun]-OH; thioether N-14) showed an IC50 of 7.1 nM. Compound CC(=O)NCCCC[C@@H]1NC(=O)[C@H](Cc2ccc(-c3ccccc3)cc2)NC(=O)[C@H](C(C)C)NC(=O)[C@H](Cc2c[nH]c3ccccc23)NC(=O)[C@H](CC(=O)O)NC(=O)[C@H](Cc2ccc(OCC(=O)O)cc2)NC(=O)[C@H](Cc2ccc(OCC(=O)O)cc2)NC(=O)CSC[C@@H](C(=O)NCCOCCOCC(=O)NCCCCCCCCCCC(=O)O)NC(=O)[C@H](C(C)O)NC(=O)[C@H](C(C)C)NC(=O)[C@H](CC2CCCCC2)NC(=O)[C@H](CCN)NC(=O)[C@@H](CC(C)C)NC(=O)[C@H](C)N(C)C1=O (stereo partly drawn) [Example 2321] ({CH2CO}-Y(Carboxymethyl)Y(Carboxymethyl)DWV[Bip]K(Ac)[NMeA][dL][Dab][Cha]V[Thr(3ξ)]C[AEEA][Aun]-OH; thioether N-14) has an IC50 of 5.8 nM.
